Results reported in patent US10052320B2, “Substituted quinoxalines as FGFR kinase inhibitors” (ASTEX THERAPEUTICS LIMITED, priority 2011, dated 2018).

Key:
Assay type in all cases: cell-based
[1] = test system: Ba/F3-FGFR3-transfected cells in the presence of 10 ng/ml murine IL3; test: Ba/F3-FGFR3 (plus IL3) cellular proliferation counterscreen, Alamar Blue; details: plus 10 ng/ml murine IL3, 384 well; for IC50: Mus musculus, read-out: BAF3-FGFR 3 (PLUS IL3) 384 well pIC50 (converted)
Method: Ba/F3-FGFR3 (Minus IL3 or Plus IL3) (Cellular Proliferation Assay)
(§1) In a 384 well plate, 100 nl of compound dilution in DMSO was sprayed before adding 50 μl cell culture medium (phenol red free RPMI-1640, 10% FBS, 2 mM L-Glutamine and 50 μg/ml Gentamycin) containing 20000 cells per well of Ba/F3-FGFR3-transfected cells. Cells were put in an incubator at 37° C. and 5% CO2. After 24 hours, 10 μl of Alamar Blue solution (0.5 mM K3Fe(CN)6, 0.5 mM KaFe(CN)6, 0.15 mM Resazurin and 100 mM Phosphate Buffer) was added to the wells, incubated for 4 hours at 37° C. and 5% CO2 before RFU's (Relative Fluorescence Units) (ex. 540 nm., em. 590 nm.) were measured in a flurorescence plate reader.
As a counterscreen the same experiment was performed in the presence of 10 ng/ml murine IL3.
as §1, with “a 96” for “a 384”, “plate, 180” for “plate, 100 nl of compound dilution in DMSO was sprayed before adding 50”, “containing 10000” for “containing 20000”, “Ba/F3-FGFR3-transfected cells were pipette and 20 μl of compound dilution in DMSO was added.” for “Ba/F3-FGFR3-transfected cells.”, “hours, 40” for “hours, 10”

[2] = test system: Ba/F3-FGFR1-transfected cells in the presence of 10 ng/ml murine IL3; test: Ba/F3-FGFR1 (plus IL3) cellular proliferation counterscreen, Alamar Blue; details: plus IL3, 384 well; for IC50: Mus musculus, read-out: BAF3-FGFR 1 (PLUS IL3) 384 well pIC50 (converted)
Procedure, shortened: (§2)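 First, compound was dispensed and cells added at 20000/well, or 10000/well in the larger-well version. Next came a 24 h incubation at 37 °C. Finally, resazurin reagent was applied for 4 h before fluorescence measurement at 540/590 nm.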

[3] = molecular target: Ba/F3-FGFR1-transfected cells (Homo sapiens, UniProt P11362); test: Ba/F3-FGFR1 (minus IL3) cellular proliferation assay, Alamar Blue; details: minus IL3, 384 well
Procedure, shortened: as §2

[4] = test system: Ba/F3-Flt3-transfected cells in the presence of 10 ng/ml murine IL3; test: Ba/F3-Flt3 (plus IL3) cellular proliferation counterscreen, Alamar Blue; details: plus 10 ng/ml murine IL3; for IC50: Mus musculus, read-out: BAF3-FLT3 (PLUS IL3) 384 well pIC50 (converted)

Sequence of Ba/F3-FGFR1-transfected cells (P11362 whole entry, change not shown): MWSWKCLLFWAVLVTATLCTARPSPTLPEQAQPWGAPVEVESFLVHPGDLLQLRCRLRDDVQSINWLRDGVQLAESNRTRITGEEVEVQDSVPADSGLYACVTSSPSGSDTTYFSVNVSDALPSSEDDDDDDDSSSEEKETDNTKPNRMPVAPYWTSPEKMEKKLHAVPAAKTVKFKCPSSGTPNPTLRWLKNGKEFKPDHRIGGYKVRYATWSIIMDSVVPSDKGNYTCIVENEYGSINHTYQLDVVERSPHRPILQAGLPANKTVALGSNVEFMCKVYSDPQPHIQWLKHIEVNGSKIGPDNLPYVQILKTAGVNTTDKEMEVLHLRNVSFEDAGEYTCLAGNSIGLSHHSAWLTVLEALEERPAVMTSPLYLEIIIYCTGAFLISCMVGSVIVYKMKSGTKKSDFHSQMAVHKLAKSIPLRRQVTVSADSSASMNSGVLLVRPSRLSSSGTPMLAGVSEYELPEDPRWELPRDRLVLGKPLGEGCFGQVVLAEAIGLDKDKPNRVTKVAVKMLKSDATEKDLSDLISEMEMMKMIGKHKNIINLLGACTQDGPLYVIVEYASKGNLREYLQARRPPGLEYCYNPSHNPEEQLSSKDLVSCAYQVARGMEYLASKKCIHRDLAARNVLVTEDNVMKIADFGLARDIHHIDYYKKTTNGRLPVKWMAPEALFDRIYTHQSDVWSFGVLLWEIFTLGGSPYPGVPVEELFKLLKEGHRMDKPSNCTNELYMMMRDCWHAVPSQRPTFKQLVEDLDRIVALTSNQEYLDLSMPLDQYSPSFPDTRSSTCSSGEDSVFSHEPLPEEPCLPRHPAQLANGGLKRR

SMILES	BAF3-FGFR 3 (PLUS IL3) 384 well pIC50 [1]	BAF3-FGFR 1 (PLUS IL3) 384 well pIC50 [2]	BAF3-FGFR 1 (MIN IL3) 384 well pIC50 [3]	BAF3-FLT3 (PLUS IL3) 384 well pIC50 [4]	IC50 [1] [µM]	IC50 [2] [µM]	IC50 [4] [µM]
COCC(O)CN(c1cc(OC)cc(OC)c1)c1ccc2ncc(-c3cccnc3)nc2c1 (single isomer, unassigned) [Compound 47]	<5	<5	6.29	<5			
COc1cc(OC)cc(N(CCCNCC(F)(F)F)c2ccc3ncc(C(=O)NCCN4CCOCC4)nc3c2)c1 [Compound 158]			<5		> 10	> 10	> 10
COc1cc(OC)cc(N(CCCO)c2ccc3ncc(-c4ccnc(C(=O)NCCOCCO)c4)nc3c2)c1 [Compound 186]			5.98		> 10	> 10	> 10
